“And” between values parts separate entries of the source, which are not always exact repeats. Equal values may be shown once. Read-outs that look alike come from different tables or passages of the source. Marks after values point to notes of the source that are not given here.
How the values were obtained:
[1] = Pharmacokinetic study of KW-3902, single intravenous dose, serum concentrations; assay type: in vivo; details: human; for clearance: read-out: CL∞ Mean (converted); for half-life: read-out: T1/2 Mean (converted); for Tmax: read-out: Tmax Median; for Vd: read-out: Vss∞ Mean
Procedure: Individuals received a single intravenous dose of 1 mg, 2.5 mg. 5 mg, 10 mg, 20 mg, 30 mg 40 mg, 50 mg or 60 mg KW-3902 as indicated. The serum concentrations of KW-3902 and its M1-trans metabolite were measured using routine analytical methods. Routine mathematical formulae were used to determine pharmacokinetic values.

[2] = system: heart failure patients with renal impairment who are treated with diuretics; test: Double-blind cross-over study in stable CHF: GFR, RPF, urine volume; assay type: in vivo, human; details: for GFR % Difference Between KW-3902 and Placebo / GFR Percent Change from Baseline / RPF % Difference Between KW-3902 and Placebo / RPF Percent Change from Baseline: 30 mg KW-3902 IV plus 80 mg IV furosemide
Procedure: A double-blind, multi-center, cross-over designed, controlled study was conducted as follows: Approximately 23 outpatient subjects were randomized. […] Subjects received at least two treatments that were at least three days apart, with a median interval between treatments of 6 days. […] Patients that received KW-3902 on the first visit received placebo on the second visit, and vice versa. Infusions of lothalamate ([…]) and para-aminohippurate were administered according to standard protocols to assess glomerular filtration rate (GFR) and renal plasma flow (RPF), respectively. Iothalamate and para-aminohippurate were administered over 180 minutes before treatment with KW-3902/placebo and 8 hours after treatment with KW-3902/placebo. Urine and plasma were collected for GFR and RPF at baseline and 2, 4, and 8 hours. The mean GFR at baseline was 61 mL/min.

[3] = system: subjects with congestive heart failure refractory to standard diuretic therapy; test: Double-blind placebo-controlled study in CHF patients refractory to standard diuretic therapy: creatinine clearance; assay type: in vivo, human; details: 30 mg intravenous infusion with current diuretic therapy; 0-24 hours; FIG. 4
Procedure: A double-blind placebo-controlled study was conducted as follows: 35 subjects with congestive heart failure that were refractory to standard diuretic therapy were identified. […] The patients' diuretic therapy was stopped at least 5 hours before prior to the treatment. Staring at −3 hours, urine was collected for volume and creatinine clearance measurements. […] Blood and urine samples were colleted at 0, 3, 6, 9, 12 and 24 hours following study drug administration.

[4] = system: patients with CHF and renal impairment; test: Double-blind placebo-controlled study in CHF patients with acute fluid overload and renal impairment: sustained worsening renal function; assay type: in vivo, human; details: 2.5, 15, 30 or 60 mg IV days 1 through 3; FIG. 6
Procedure: Worsening renal function was defined as a ≧0.3 mg/dL increase in serum creatinine.

[5] = system: subjects hospitalized due to acute CHF requiring intravenous diuretic therapy; test: Study in subjects hospitalized due to acute CHF requiring intravenous diuretic therapy: serum creatinine, worsening renal function; assay type: in vivo, human
Procedure: More than 300 subjects hospitalized due to acute CHF requiring intravenous diuretic therapy to treat fluid overload, and presenting with creatinine clearance values between 20 to 80 mL/min were identified. The subjects were randomized to receive either placebo, or 10 mg, 20 mg or 30 mg intravenous KW-3902 per day. The subjects' BNP levels, NT-Pro-BNP, serum creatinine, weight, and NYHA Class were measured.
On day 1, KW-3902 (or placebo) was co-administered with intravenous furosemide (LASIX™). The specified dose of KW-3902 (or placebo) was infused over a four hour time period. Subjects received therapy for up to three days, as required. Serum creatinine, weight, dyspnea, and worsening heart failure were assessed daily by the investigator on days 1 through 14. Worsening renal function was defined as a ≧0.3 mg/dL increase in serum creatinine.
A subgroup of subjects received a single dose of KW-3902 and LASIX or a single dose of placebo and LASIX.

[6] = 1 mg, single intravenous dose 1 mg, Group 1, serum
[7] = 2.5 mg, single intravenous dose 2.5 mg, Group 1 (n = 4)
[8] = 2.5 mg, single intravenous dose 2.5 mg, Group 2 (n = 8)
[9] = 5 mg, single intravenous dose 5 mg, Group 2, serum
[10] = 10 mg, single intravenous dose 10 mg, Group 2, serum
[11] = 20 mg, single intravenous dose 20 mg, Group 3, serum
[12] = 30 mg, single intravenous dose 30 mg, Group 3, serum
[13] = 40 mg, single intravenous dose 40 mg, Group 4, serum
[14] = 50 mg, single intravenous dose 50 mg, Group 4, serum
[15] = 60 mg, single intravenous dose 60 mg, Group 4, serum
[16] = serum, individual subjects of subgroup, single dose of KW-3902 and LASIX

- AUC(0-inf) [1, 6]: 31.5 ng·h/mL
- Cmax [1, 6]: 12.9 ng/mL
- MRT inf [1, 6]: 2.6 h
- clearance [1, 6]: 610 mL/min
- half-life [1, 6]: 2.8 h
- Tmax [1, 6]: 0.5 h
- Vd [1, 6]: 58.9 L
- AUC(0-inf) [1, 7]: 97.6 ng·h/mL
- Cmax [1, 7]: 35.6 ng/mL
- MRT inf [1, 7]: 8.1 h
- clearance [1, 7]: 443 mL/min
- half-life [1, 7]: 11.4 h
- Tmax [1, 7]: 1.2 h
- Vd [1, 7]: 185 L
- AUC(0-inf) [1, 8]: 84 ng·h/mL
- Cmax [1, 8]: 35.9 ng/mL
- MRT inf [1, 8]: 4.7 h
- clearance [1, 8]: 518 mL/min
- half-life [1, 8]: 7.3 h
- Tmax [1, 8]: 0.5 h
- Vd [1, 8]: 117 L
- AUC(0-inf) [1, 9]: 221 ng·h/mL
- Cmax [1, 9]: 90.9 ng/mL
- MRT inf [1, 9]: 5.8 h
- clearance [1, 9]: 435 mL/min
- half-life [1, 9]: 9.6 h
- Tmax [1, 9]: 0.5 h
- Vd [1, 9]: 106 L
- AUC(0-inf) [1, 10]: 496 ng·h/mL
- Cmax [1, 10]: 186 ng/mL
- MRT inf [1, 10]: 8.7 h
- clearance [1, 10]: 350 mL/min
- half-life [1, 10]: 14.4 h
- Tmax [1, 10]: 0.5 h
- Vd [1, 10]: 161 L
- AUC(0-inf) [1, 11]: 898 ng·h/mL
- Cmax [1, 11]: 294 ng/mL
- MRT inf [1, 11]: 11.5 h
- clearance [1, 11]: 390 mL/min
- half-life [1, 11]: 18 h
- Tmax [1, 11]: 1.2 h
- Vd [1, 11]: 244 L
- AUC(0-inf) [1, 12]: 1190 ng·h/mL
- Cmax [1, 12]: 457 ng/mL
- MRT inf [1, 12]: 7.7 h
- clearance [1, 12]: 455 mL/min
- half-life [1, 12]: 14.7 h
- Tmax [1, 12]: 0.6 h
- Vd [1, 12]: 189 L
- AUC(0-inf) [1, 13]: 1870 ng·h/mL
- Cmax [1, 13]: 452 ng/mL
- MRT inf [1, 13]: 9.4 h
- clearance [1, 13]: 372 mL/min
- half-life [1, 13]: 16.1 h
- Tmax [1, 13]: 2.2 h
- Vd [1, 13]: 178 L
- AUC(0-inf) [1, 14]: 2120 ng·h/mL
- Cmax [1, 14]: 579 ng/mL
- MRT inf [1, 14]: 7.9 h
- clearance [1, 14]: 427 mL/min
- half-life [1, 14]: 15.5 h
- Tmax [1, 14]: 1.6 h
- Vd [1, 14]: 166 L
- AUC(0-inf) [1, 15]: 2720 ng·h/mL
- Cmax [1, 15]: 682 ng/mL
- MRT inf [1, 15]: 9.2 h
- clearance [1, 15]: 378 mL/min
- half-life [1, 15]: 16.4 h
- Tmax [1, 15]: 2.2 h
- Vd [1, 15]: 176 L
Structure (SMILES): CCCn1c(=O)c2[nH]c(C34CC5CC(CC3C5)C4)nc2n(CCC)c1=O [KW-3902, 8-(3-noradamantyl)-1,3-dipropylxanthine]
- GFR % Difference Between KW-3902 and Placebo ([2]; 0-2 hours): 27.3* %
- GFR Percent Change from Baseline ([2]; 0-2 hours): 22.1* Percent
- RPF % Difference Between KW-3902 and Placebo ([2]; 0-2 hours): 27.7* %
- RPF Percent Change from Baseline ([2]; 0-2 hours): 33.3* Percent
- GFR % Difference Between KW-3902 and Placebo ([2]; 0-8 hours): 23.4* %
- GFR Percent Change from Baseline ([2]; 0-8 hours): 32.1* Percent
- RPF % Difference Between KW-3902 and Placebo ([2]; 0-8 hours): 24.9* %
- RPF Percent Change from Baseline ([2]; 0-8 hours): 47.7** Percent
- GFR % Difference Between KW-3902 and Placebo ([2]; 2-4 hours): 7.6%
- GFR Percent Change from Baseline ([2]; 2-4 hours): 8.5%
- RPF % Difference Between KW-3902 and Placebo ([2]; 2-4 hours): 12.7%
- RPF Percent Change from Baseline ([2]; 2-4 hours): 41.7%
- GFR % Difference Between KW-3902 and Placebo ([2]; 4-8 hours): 30.1* %
- GFR Percent Change from Baseline ([2]; 4-8 hours): 41.3* Percent
- RPF % Difference Between KW-3902 and Placebo ([2]; 4-8 hours): 30.0* %
- RPF Percent Change from Baseline ([2]; 4-8 hours): 55.8* Percent
- Effect on GFR (in words) ([2]; FIG. 2): statistically significant increase
- Effect on renal plasma flow (in words) ([2]; FIG. 3): statistically significant increase
- Urine volume over 8 hours ([2]; KW-3902 plus furosemide): 2995.1 ± 1138.17 mL
- Persistence of the increase in GFR noted at 8 hours ([2]; subgroup that received KW-3902 on the first visit, follow-up baseline (median 6 days), FIG. 5): persisted at the time of follow-up baseline
- Change in creatinine clearance from baseline (in words) [3]: improvement in renal function over time
- Sustained worsening renal function (≧0.3 mg/dL increase in serum creatinine), in words [4]: improves renal function
- Change in mean serum creatinine levels (in words) ([5]; 30 mg per day IV up to three days, Day 14, FIG. 8): overall decrease in serum creatinine levels
- Increase in the percentage of individuals with worsening renal failure, compared to placebo ([5]; days 2, 3, 4, 5, 6, and 7, FIG. 7): lower
- Δ Creatinine ([5]; serum, Day 14 vs Day 1, individual subjects of subgroup, single dose of KW-3902 and LASIX): −0.5 mg/dL and 0 mg/dL (2×) and 0.2 mg/dL and −0.2 mg/dL and −0.1 mg/dL
- Day 1 Creatinine [5, 16]: 1.7 mg/dL and 1.4 mg/dL and 1.15 mg/dL and 2.9 mg/dL and 1.6 mg/dL and 3.2 mg/dL and 1.0 mg/dL
- Day 14 Creatinine [5, 16]: 1.2 mg/dL and 1.4 mg/dL and 1.3 mg/dL and 2.7 mg/dL (2×) and 1.0 mg/dL
- Mean change in serum creatinine levels (in words) ([5]; single dose subgroup (30 mg KW-3902), Day 14): mean decrease in serum creatinine levels
